One may read the Ki as the dissociation constant of the complex between target and ligand, obtained from inhibition or displacement.

Experimental findings from US20140005214A1, “PIPERIDINONE CARBOXAMIDE SPIROHYDANTOIN CGRP RECEPTOR ANTAGONISTS” (priority 2011, published 2014) are described below.

In this test the target is T1, recombinant human CL receptor/RAMP1 (Homo sapiens, UniProt O60894+Q16602).
T1 construct: expressed in transfected cells; membranes
The experiment in a line: Recombinant receptor binding assay (125I-hCGRP). The settings on record: membranes of HEK 293 cells expressing recombinant human CL receptor/RAMP1; 10 pM 125I-hCGRP. Here is the method:
RECOMBINANT RECEPTOR: Human CL receptor (Genbank accession number L76380) was subcloned into the expression vector pIREShyg2 (BD Biosciences Clontech) as a 5′NheI and 3′ PmeI fragment. Human RAMP1 (Genbank accession number AJ001014) was subcloned into the expression vector pIRESpuro2 (BD Biosciences Clontech) as a 5′NheI and 3′NotI fragment. HEK 293 cells (human embryonic kidney cells; ATCC #CRL-1573) were cultured in DMEM with 4.5 g/L glucose, 1 mM sodium pyruvate and 2 mM glutamine supplemented with 10% fetal bovine serum (FBS), 100 units/mL penicillin and 100 μg/mL streptomycin, and maintained at 37° C. and 95% humidity. Cells were subcultured by treatment with 0.25% trypsin with 0.1% EDTA in HBSS. Stable cell line generation was accomplished by co-transfecting 10 μg of DNA with 30 μg Lipofectamine 2000 (Invitrogen) in 75 cm^2 flasks. CL receptor and RAMP1 expression constructs were co-transfected in equal amounts. Twenty-four hours after transfection the cells were diluted and selective medium (growth medium+[…] hygromycin and 1 μg/mL puromycin) was added the following day. A clonal cell line was generated by single cell deposition utilizing a FACS Vantage SE (Becton Dickinson). Growth medium was adjusted to 150 μg/mL hygromycin and 0.5 μg/mL puromycin for cell propagation.
RECOMBINANT RECEPTOR BINDING ASSAY: Cells expressing recombinant human CL receptor/RAMP1 were washed with PBS and harvested in harvest buffer containing 50 mM HEPES, 1 mM EDTA and Complete™ protease inhibitors (Roche). The cell suspension was disrupted with a laboratory homogenizer and centrifuged at 48,000 g to isolate membranes. The pellets were resuspended in harvest buffer plus 250 mM sucrose and stored at −70° C. For binding assays, 20 μg of membranes were incubated in 1 mL binding buffer (10 mM HEPES, pH 7.4, 5 mM MgCl2, and 0.2% BSA) for 3 h at room temperature containing 10 pM ^125I-hCGRP (GE Healthcare) and antagonist. The assay was terminated by filtration through 96-well GFB glass fiber filter plates (PerkinElmer) that had been blocked with 0.05% polyethyleneimine. The filters were washed 3 times with ice-cold assay buffer (10 mM HEPES, pH 7.4, and 5 mM MgCl2). Scintillation fluid was added and the plates were counted on a Topcount (Packard). Non-specific binding was determined and the data analysis was carried out with the apparent dissociation constant (Ki) determined by using a non-linear least squares fitting the bound CPM data to the equation below: […]
Where Y is observed CPM bound, Ymax is total bound counts, Ymin is non specific bound counts, (Ymax−Ymin) is specific bound counts, % Imax is the maximum percent inhibition, % I min is the minimum percent inhibition, radiolabel is the probe, and the Kd is the apparent dissociation constant for the radioligand for the receptor as determined by hot saturation experiments.

Molecules are shown by their SMILES.

T1 sequence (Q16602 23-461): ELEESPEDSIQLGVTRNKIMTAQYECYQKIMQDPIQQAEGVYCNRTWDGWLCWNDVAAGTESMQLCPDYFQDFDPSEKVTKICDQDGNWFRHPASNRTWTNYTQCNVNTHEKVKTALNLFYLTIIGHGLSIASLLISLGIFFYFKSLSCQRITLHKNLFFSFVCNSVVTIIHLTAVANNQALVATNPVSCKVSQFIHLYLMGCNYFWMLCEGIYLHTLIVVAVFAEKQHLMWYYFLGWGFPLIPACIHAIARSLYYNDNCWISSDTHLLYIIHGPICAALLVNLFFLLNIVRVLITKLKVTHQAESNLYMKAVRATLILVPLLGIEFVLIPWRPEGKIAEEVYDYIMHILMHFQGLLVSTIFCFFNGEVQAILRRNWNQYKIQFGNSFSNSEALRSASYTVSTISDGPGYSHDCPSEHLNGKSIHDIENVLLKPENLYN
T1 sequence (O60894 27-148): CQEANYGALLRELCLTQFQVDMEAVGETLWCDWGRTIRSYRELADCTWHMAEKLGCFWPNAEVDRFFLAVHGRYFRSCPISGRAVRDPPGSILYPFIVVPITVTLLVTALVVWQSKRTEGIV

With `C[C@@H]1[C@H](c2cc(F)cc(F)c2F)C[C@H](NC(=O)c2ccc3c(c2)C[C@@]2(C3)C(=O)NC(=O)N2C)C(=O)N1CC(F)(F)F` [Example 1, (4S)-3-Methyl-N-[(3S,5S,6R)-6-methyl-2-oxo-1-(2,2,2-trifluoroethyl)-5-(2,3,5-trifluorophenyl)piperidin-3-yl]-2,5-dioxo-1′,3′-dihydrospiro[imidazolidine-4,2′-indene]-5′-carboxamide], the Ki came out at 0.042 nM.
The result for `C[C@@H]1[C@H](c2c(F)ccc(F)c2F)C[C@H](NC(=O)c2ccc3c(c2)C[C@@]2(C3)C(=O)NC(=O)N2C)C(=O)N1CC(F)(F)F` [Example 2] reads 0.048 nM; that for `C[C@@H]1[C@H](c2ccccc2)C[C@H](NC(=O)c2ccc3c(c2)C[C@@]2(C3)C(=O)NC(=O)N2C)C(=O)N1CC(F)(F)F` [Example 3], 0.36 nM; that for `C[C@@H]1[C@H](c2c(F)c(F)cc(F)c2F)C[C@H](NC(=O)c2ccc3c(c2)C[C@@]2(C3)C(=O)NC(=O)N2C)C(=O)N1CC(F)(F)F` [Example 4], 0.036 nM.
As to `Cc1ccccc1[C@@H]1C[C@H](NC(=O)c2ccc3c(c2)C[C@@]2(C3)C(=O)NC(=O)N2C)C(=O)N(CC(F)(F)F)[C@@H]1C` [Example 5], the Ki is 1.9 nM.
As for `Cc1cccc([C@@H]2C[C@H](NC(=O)c3ccc4c(c3)C[C@@]3(C4)C(=O)NC(=O)N3C)C(=O)N(CC(F)(F)F)[C@@H]2C)c1` [Example 6], the figure is 1.8 nM.
As for `Cc1c(F)cccc1[C@@H]1C[C@H](NC(=O)c2ccc3c(c2)C[C@@]2(C3)C(=O)NC(=O)N2C)C(=O)N(CC(F)(F)F)[C@@H]1C` [Example 7], the figure is 0.5 nM.
